In US20240083857A1, “2-Methyl-Quinazolines” (Bayer Pharma Aktiengesellschaft, priority 2017, published 2024):
Where two headings read alike, the source gives them in different places.

Key:
[1] = molecular target: K-Ras^G12C : hSOS1 interaction (Homo sapiens, UniProt Q07889); assay: Biochemical assay 1: K-Ras^G12C interaction assay with hSOS1 (HTRF); assay type: binding; conditions: for inhibition at 20 µM: read-out: Assay 1 (KRAS-SOS Interaction) activity expressed as % inhibition at 20 μM
[2] = molecular target: human SOS1 (loading of human K-Ras^G12C-GDP with fluorescent GTP-analog) (Homo sapiens, UniProt Q07889); assay: Biochemical assay 3: K-Ras^G12C activation assay by hSOS1 (HTRF); conditions: for inhibition at 20 µM: read-out: Assay 3 (KRAS-Activation by SOS no GTP) activity expressed as % inhibition at 20 μM
[3] = molecular target: human SOS1 (nucleotide exchange of K-Ras^G12C) (Homo sapiens, UniProt Q07889); assay: Biochemical assay 2: K-Ras^G12C activation assay by hSOS1 at high GTP concentration (HTRF); conditions: for inhibition at 20 µM: read-out: Assay 2 (KRAS-Activation by SOS high GTP) activity expressed as % inhibition at 20 μM
[4] = read-out: Assay 1 (KRAS-SOS Interaction) activity expressed as IC50
[5] = no GTP, read-out: Assay 3 (KRAS-Activation by SOS no GTP) activity expressed as IC50
[6] = high GTP, read-out: Assay 2 (KRAS-Activation by SOS high GTP) activity expressed as IC50

SMILES | IC50 [1, 4] [µM] | IC50 [2, 5] [µM] | IC50 [3, 6] [µM] | other results
CCCNC(=O)c1ccc(-c2cccc([C@@H](C)Nc3nc(C)nc4cc(OC)c(OC)cc34)c2)cc1 [Example 73, 3′-{(1R)-1-[(6,7-dimethoxy-2-methylquinazolin-4-yl)amino]ethyl}-N-propylbiphenyl-4-carboxamide] | 0.427 | 0.495 | 0.554 | –
COc1cc2nc(C)nc(NC(C)c3ccc(-c4ccccc4CNCC(=O)NCc4ccccc4)s3)c2cc1OC (stereo not drawn) [Example 284, N-benzyl-2-[2-(5-{1-[(6,7-dimethoxy-2-methylquinazolin-4-yl)amino]ethyl}thiophen-2-yl)benzyl]glycinamide] | 1.06 | 0.889 | 0.879 | –
COc1cc2nc(C)nc(N[C@H](C)c3cccc(-c4ccc(NC(=O)OC(C)(C)C)cc4)c3)c2cc1OC [Example 92, tert-butyl (3′-{(1R)-1-[(6,7-dimethoxy-2-methylquinazolin-4-yl)amino]ethyl}biphenyl-4-yl)carbamate] | 4.7 | 9.26 | 3.67 | –
COc1cc2nc(C)nc(N[C@@H](C)c3ccc(-c4ccc5cc[nH]c5c4)s3)c2cc1OC (racemic) [Example 54, N-{1-[5-(1H-indol-6-yl)thiophen-2-yl]ethyl}-6,7-dimethoxy-2-methylquinazolin-4-amine] | 4.19 | 4.07 | 4.13 | –
Cc1nc(N[C@H](C)c2ccc(F)cc2)c2cc(Br)ccc2n1 [Example 31, 6-bromo-N-[(1R)-1-(4-fluorophenyl)ethyl]-2-methylquinazolin-4-amine] | 8.59 | – | 9.51 | inhibition at 20 µM ([2]; no GTP): 49%
COc1cc2nc(C)nc(N[C@@H](C)c3ccc(-c4ccc(N5CCOCC5)cc4)s3)c2cc1OC (stereo in doubt) [Example 43, 6,7-dimethoxy-2-methyl-N-[1-{5-[4-(morpholin-4-yl)phenyl]thiophen-2-yl}ethyl]quinazolin-4-amine] | – | – | – | inhibition at 20 µM [1]: 30%; inhibition at 20 µM ([2]; no GTP): 16%; inhibition at 20 µM ([3]; high GTP): 14%
COc1cc2nc(C)nc(N[C@@H](C)c3ccc(-c4ccc(C)cc4C)s3)c2cc1OC (racemic) [Example 161, N-{1-[5-(2,4-dimethylphenyl)thiophen-2-yl]ethyl}-6,7-dimethoxy-2-methylquinazolin-4-amine] | 4.17 | 7 | 3.97 | –
COc1cc2nc(C)nc(N[C@H](C)c3cccc(-c4cccc(C(F)(F)F)c4)c3)c2cc1OC [Example 100, 6,7-dimethoxy-2-methyl-N-{(1R)-1-[3′-(trifluoromethyl)biphenyl-3-yl]ethyl}quinazolin-4-amine] | 5.35 | 8.52 | 4.51 | –
COc1cc2nc(C)nc(N[C@H](C)c3cccc(-c4cccc5[nH]ccc45)c3)c2cc1OC [Example 110, N-{(1R)-1-[3-(1H-indol-4-yl)phenyl]ethyl}-6,7-dimethoxy-2-methylquinazolin-4-amine] | 1.04 | 1.19 | 0.908 | –
COc1cc2nc(C)nc(N[C@H](C)c3cccc(-c4ccc(C(C)=O)s4)c3)c2cc1OC [Example 95, 1-[5-(3-{(1R)-1-[(6,7-dimethoxy-2-methylquinazolin-4-yl)amino]ethyl}phenyl)thiophen-2-yl]ethanone] | 0.801 | 1.08 | 0.473 | –
COc1cc2nc(C)nc(N[C@@H](C)c3ccc(-c4ccc(C(C)(C)C#N)cc4)s3)c2cc1OC (stereo in doubt) [Example 137, 2-[4-(5-{1-[(6,7-dimethoxy-2-methylquinazolin-4-yl)amino]ethyl}thiophen-2-yl)phenyl]-2-methylpropanenitrile] | – | – | – | inhibition at 20 µM [1]: 48%; inhibition at 20 µM ([2]; no GTP): 32%; inhibition at 20 µM ([3]; high GTP): 36%
CCCOc1ccc(Cl)cc1-c1ccc([C@H](C)Nc2nc(C)nc3cc(OC)c(OC)cc23)s1 (stereo in doubt) [Example 144, N-{1-[5-(5-chloro-2-propoxyphenyl)thiophen-2-yl]ethyl}-6,7-dimethoxy-2-methylquinazolin-4-amine] | – | – | – | inhibition at 20 µM [1]: 30%; inhibition at 20 µM ([2]; no GTP): 19%; inhibition at 20 µM ([3]; high GTP): 12%
COc1cc2nc(C)nc(N[C@H](C)c3cccc(-c4ccc(C(=O)NCCN(C)C)cc4)c3)c2cc1OC [Example 74, 3′-{(1R)-1-[(6,7-dimethoxy-2-methylquinazolin-4-yl)amino]ethyl}-N-[2-(dimethylamino)ethyl]biphenyl-4-carboxamide] | 0.149 | 0.261 | 0.223 | –
COc1cc2nc(C)nc(N[C@H](C)c3cccc(-c4ccccc4Oc4ccccc4)c3)c2cc1OC [Example 91, 6,7-dimethoxy-2-methyl-N-[(1R)-1-(2′-phenoxybiphenyl-3-yl)ethyl]quinazolin-4-amine] | 15 | – | – | inhibition at 20 µM ([2]; no GTP): 38%; inhibition at 20 µM ([3]; high GTP): 36%
COc1cc2nc(C)nc(N[C@H](C)c3cccc(-c4cccc(CNS(C)(=O)=O)c4)c3)c2cc1OC [Example 71, N-[(3′-{(1R)-1-[(6,7-dimethoxy-2-methylquinazolin-4-yl)amino]ethyl}biphenyl-3-yl)methyl]methanesulfonamide] | 0.393 | 0.68 | 0.643 | –
COc1ncc(-c2ccc([C@H](C)Nc3nc(C)nc4cc(OC)c(OC)cc34)s2)cn1 (racemic) [Example 172, 6,7-dimethoxy-N-{1-[5-(2-methoxypyrimidin-5-yl)thiophen-2-yl]ethyl}-2-methylquinazolin-4-amine] | 4.07 | 9.19 | 7.33 | –
COc1cc2nc(C)nc(N[C@H](C)c3cccc(-c4ccc(C)cc4C)c3)c2cc1OC [Example 94, N-[{1R)-1-(2′,4′-dimethylbiphenyl-3-yl)ethyl]-6,7-dimethoxy-2-methylquinazolin-4-amine] | 2.42 | 4.28 | 3.14 | –
COc1cc2nc(C)nc(N[C@H](C)c3cccc(-c4ccc(CNS(C)(=O)=O)cc4)c3)c2cc1OC [Example 72, N-[(3′-{(1R)-1-[(6,7-dimethoxy-2-methylquinazolin-4-yl)amino]ethyl}biphenyl-4-yl)methyl]methanesulfonamide] | 0.737 | 0.882 | 0.666 | –
COc1cc2nc(C)nc(N[C@H](C)c3cccc(-c4cnc(N)nc4)c3)c2cc1OC [Example 62, N-{(1R)-1-[3-(2-aminopyrimidin-5-yl)phenyl]ethyl}-6,7-dimethoxy-2-methylquinazolin-4-amine] | 1.26 | 2.63 | 2.77 | –
COc1cc2nc(C)nc(N[C@@H](C)c3ccc(-c4cccc(OCc5ccccc5)c4)s3)c2cc1OC (stereo in doubt) [Example 135, N-[1-{5-[3-(benzyloxy)phenyl]thiophen-2-yl}ethyl]-6,7-dimethoxy-2-methylquinazolin-4-amine] | – | – | – | inhibition at 20 µM [1]: 28%; inhibition at 20 µM ([2]; no GTP): 13%; inhibition at 20 µM ([3]; high GTP): 5%
COc1cc2nc(C)nc(N[C@H](C)c3cccc(-c4cncc(C)c4)c3)c2cc1OC [Example 41, 6,7-dimethoxy-2-methyl-N-{(1R)-1-[3-(5-methylpyridin-3-yl)phenyl]ethyl}quinazolin-4-amine] | 0.972 | 1.67 | 1.4 | –
COc1cc2nc(C)nc(N[C@H](C)c3cccc(-c4ccc5[nH]ccc5c4)c3)c2cc1OC [Example 85, N-{(1R)-1-[3-(1H-indol-5-yl)phenyl]ethyl}-6,7-dimethoxy-2-methylquinazolin-4-amine] | 0.687 | 1.26 | 0.756 | –
COc1cc2nc(C)nc(NC(C)c3ccc(-c4ccc(C(F)(F)F)cc4CN(C)C)s3)c2cc1OC (stereo not drawn) [Example 385, N-(1-(5-(2-((dimethylamino)methyl)-4-(trifluoromethyl)phenyl)thiophen-2-yl)ethyl)-6,7-dimethoxy-2-methylquinazolin-4-amine] | – | – | – | IC50 ([1]; E-notation values, unit inferred, read-out: Assay 1 (KRAS-SOS interaction) IC50): 0.732 µM; IC50 ([2]; E-notation values, unit inferred, read-out: Assay 3 (KRAS-Activation) IC50): 0.388 µM; IC50 ([3]; E-notation values, unit inferred, 50 μM GTP, read-out: Assay 2 (KRAS-Activation, high GTP) IC50): 0.329 µM
COc1cc2nc(C)nc(N[C@@H](C)c3ccc(-c4ccccc4S(=O)(=O)N(C)C)s3)c2cc1OC (racemic) [Example 169, 2-(5-{1-[(6,7-dimethoxy-2-methylquinazolin-4-yl)amino]ethyl}thiophen-2-yl)-N,N-dimethylbenzenesulfonamide] | 2.16 | 4.53 | 3.7 | –
COc1cc2nc(C)nc(N[C@@H](C)c3ccc(-c4cccc(N5CCOCC5)c4)s3)c2cc1OC (stereo in doubt) [Example 44, 6,7-dimethoxy-2-methyl-N-[1-{5-[3-(morpholin-4-yl)phenyl]thiophen-2-yl}ethyl]quinazolin-4-amine] | – | – | – | inhibition at 20 µM [1]: 55%; inhibition at 20 µM ([2]; no GTP): 25%; inhibition at 20 µM ([3]; high GTP): 47%
CCCOc1ccccc1-c1ccc([C@H](C)Nc2nc(C)nc3cc(OC)c(OC)cc23)s1 (stereo in doubt) [Example 47, 6,7-dimethoxy-2-methyl-N-{1-[5-(2-propoxyphenyl)thiophen-2-yl]ethyl}quinazolin-4-amine] | – | – | – | inhibition at 20 µM [1]: 40%; inhibition at 20 µM ([2]; no GTP): 17%; inhibition at 20 µM ([3]; high GTP): 22%
COc1cc2nc(C)nc(N[C@@H](C)c3ccc(-c4ccc(C(=O)NCCN(C)C)cc4)s3)c2cc1OC (racemic) [Example 142, 4-(5-{1-[(6,7-dimethoxy-2-methylquinazolin-4-yl)amino]ethyl}thiophen-2-yl)-N-[2-(dimethylamino)ethyl]benzamide] | 1.01 | 1.02 | 1.81 | –
